From article PMC5454378, “Histone deacetylase 10 structure and molecular function as a polyamine deacetylase” (Nature Communications, 2017)

Experiments:
Assay type in all cases: biochemical
[1] = molecular target: T1, zHDAC10 (Danio rerio, UniProt F1QCV2); assay: LC–MS deacetylase inhibition assay with N8-acetylspermidine; Ki by Cheng-Prusoff
T1 construct: gene hdac10; full-length, residues 2–675
T1 sequence (F1QCV2 2-675): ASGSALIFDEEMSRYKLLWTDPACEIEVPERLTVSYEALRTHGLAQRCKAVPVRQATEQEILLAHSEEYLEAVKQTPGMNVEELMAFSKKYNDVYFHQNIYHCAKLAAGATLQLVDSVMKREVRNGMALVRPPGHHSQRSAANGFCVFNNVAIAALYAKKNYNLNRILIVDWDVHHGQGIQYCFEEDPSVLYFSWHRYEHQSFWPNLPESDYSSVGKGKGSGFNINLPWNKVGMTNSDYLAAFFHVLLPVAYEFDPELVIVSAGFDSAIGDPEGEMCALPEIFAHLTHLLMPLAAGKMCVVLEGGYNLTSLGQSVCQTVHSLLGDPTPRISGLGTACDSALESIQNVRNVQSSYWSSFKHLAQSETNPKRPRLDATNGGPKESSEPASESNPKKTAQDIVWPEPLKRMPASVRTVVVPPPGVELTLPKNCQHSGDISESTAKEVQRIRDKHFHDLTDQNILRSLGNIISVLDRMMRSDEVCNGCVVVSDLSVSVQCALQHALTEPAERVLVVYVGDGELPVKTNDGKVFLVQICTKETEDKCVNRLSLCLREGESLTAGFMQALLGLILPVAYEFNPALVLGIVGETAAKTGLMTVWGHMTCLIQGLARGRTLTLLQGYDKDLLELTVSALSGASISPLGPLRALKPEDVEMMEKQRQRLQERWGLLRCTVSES

[2] = molecular target: T2, hHDAC10 (Homo sapiens, UniProt Q969S8); assay: LC–MS steady-state kinetics (kcat/KM)
T2 construct: gene HDAC10; full-length, residues 2–669, MBP fusion
T2 sequence (Q969S8 2-669): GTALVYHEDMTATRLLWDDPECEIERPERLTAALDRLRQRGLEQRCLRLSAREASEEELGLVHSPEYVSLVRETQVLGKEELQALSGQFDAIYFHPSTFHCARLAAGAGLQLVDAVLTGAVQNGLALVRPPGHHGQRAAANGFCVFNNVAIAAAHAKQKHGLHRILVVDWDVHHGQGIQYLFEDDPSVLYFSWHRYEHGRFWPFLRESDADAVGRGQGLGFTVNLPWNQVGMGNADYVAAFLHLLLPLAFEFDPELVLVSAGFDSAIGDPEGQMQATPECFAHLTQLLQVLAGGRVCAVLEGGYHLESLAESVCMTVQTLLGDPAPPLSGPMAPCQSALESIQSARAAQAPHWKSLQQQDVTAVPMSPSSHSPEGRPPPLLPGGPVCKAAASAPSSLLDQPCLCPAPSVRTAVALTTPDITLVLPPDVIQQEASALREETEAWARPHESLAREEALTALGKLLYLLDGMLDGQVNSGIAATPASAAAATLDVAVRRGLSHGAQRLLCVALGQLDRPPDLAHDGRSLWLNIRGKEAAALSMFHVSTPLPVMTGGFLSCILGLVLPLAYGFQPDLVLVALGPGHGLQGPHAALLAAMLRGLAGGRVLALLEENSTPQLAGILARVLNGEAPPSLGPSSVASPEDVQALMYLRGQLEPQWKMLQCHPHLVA

[3] = molecular target: T1, zHDAC10; assay: LC–MS steady-state kinetics (kcat/KM)
[4] = molecular target: T2, hHDAC10; assay: LC–MS steady-state kinetics
[5] = molecular target: T1, zHDAC10; assay: LC–MS steady-state kinetics

SMILES	LC-MS steady-state kinetics [4]	LC-MS steady-state kinetics [5]	other results
NCCCNCCCCCC(=O)C(F)(F)F [AAT, 7-[(3-aminopropyl)amino]-1,1,1-trifluoroheptan-2-one]	–	–	Ki [1]: 700 ± 200 nM
CC(=O)NCCCCNCCCN [N^8-AcSPD, N^8-acetylspermidine]	–	–	LC-MS steady-state kinetics (kcat/KM) [2]: 2,900±200 M^−1 s^−1; LC-MS steady-state kinetics (kcat/KM) [3]: 4,600±300 M^−1 s^−1
CC(=O)NCCCCN [AcPUT, acetylputrescine]	substantial catalytic activity was also observed with acetylcadaverine and acetylputrescine	substantial catalytic activity was also observed with acetylcadaverine and acetylputrescine	–
CC(=O)NCCCCCCCCN [AcDAO, N-(8-aminooctyl)acetamide]	–	also observed with acetylcadaverine and acetylputrescine, as well as N-(8-aminooctyl)acetamide	–
CC(=O)NCCCCCN [AcCAD, acetylcadaverine]	substantial catalytic activity was also observed with acetylcadaverine and acetylputrescine	substantial catalytic activity was also observed with acetylcadaverine and acetylputrescine	–
